Measured values: ChEMBL document CHEMBL1157712, “Hit to lead account of the discovery of bisbenzamide and related ureidobenzamide inhibitors of Rho kinase” (J Med Chem, 2010)
Each block holds one compound with its values, some of them ahead of it.

Assays:
[1] = biological target: Lymphokine-activated killer T-cell-originated protein kinase (Homo sapiens) (UniProt Q96KB5); experiment: Inhibition of PBK at 3 uM relative to control; values are per cent of control
[2] = Inhibition of PKBD at 3 uM relative to control; values are per cent of control
[3] = biological target: Mitogen-activated protein kinase 1 (Homo sapiens) (UniProt P28482); experiment: Inhibition of MAPK2 at 3 uM relative to control; values are per cent of control
Chain of Mitogen-activated protein kinase 1 (Homo sapiens) (P28482 whole entry): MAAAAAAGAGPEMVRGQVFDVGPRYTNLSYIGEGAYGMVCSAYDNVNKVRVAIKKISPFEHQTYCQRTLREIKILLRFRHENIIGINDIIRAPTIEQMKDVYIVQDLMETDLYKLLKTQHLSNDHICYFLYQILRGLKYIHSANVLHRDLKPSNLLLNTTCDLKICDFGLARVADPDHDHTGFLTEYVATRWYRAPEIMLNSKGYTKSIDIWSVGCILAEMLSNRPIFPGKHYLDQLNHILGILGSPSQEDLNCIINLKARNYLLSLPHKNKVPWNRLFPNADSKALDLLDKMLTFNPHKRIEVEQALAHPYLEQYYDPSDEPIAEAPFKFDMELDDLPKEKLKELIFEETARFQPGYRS

[4] = biological target: MAP/microtubule affinity-regulating kinase 3 (Homo sapiens) (UniProt P27448); experiment: Inhibition of MARK3 at 3 uM relative to control; values are per cent of control
Chain of MAP/microtubule affinity-regulating kinase 3 (Homo sapiens) (P27448 whole entry, looked up): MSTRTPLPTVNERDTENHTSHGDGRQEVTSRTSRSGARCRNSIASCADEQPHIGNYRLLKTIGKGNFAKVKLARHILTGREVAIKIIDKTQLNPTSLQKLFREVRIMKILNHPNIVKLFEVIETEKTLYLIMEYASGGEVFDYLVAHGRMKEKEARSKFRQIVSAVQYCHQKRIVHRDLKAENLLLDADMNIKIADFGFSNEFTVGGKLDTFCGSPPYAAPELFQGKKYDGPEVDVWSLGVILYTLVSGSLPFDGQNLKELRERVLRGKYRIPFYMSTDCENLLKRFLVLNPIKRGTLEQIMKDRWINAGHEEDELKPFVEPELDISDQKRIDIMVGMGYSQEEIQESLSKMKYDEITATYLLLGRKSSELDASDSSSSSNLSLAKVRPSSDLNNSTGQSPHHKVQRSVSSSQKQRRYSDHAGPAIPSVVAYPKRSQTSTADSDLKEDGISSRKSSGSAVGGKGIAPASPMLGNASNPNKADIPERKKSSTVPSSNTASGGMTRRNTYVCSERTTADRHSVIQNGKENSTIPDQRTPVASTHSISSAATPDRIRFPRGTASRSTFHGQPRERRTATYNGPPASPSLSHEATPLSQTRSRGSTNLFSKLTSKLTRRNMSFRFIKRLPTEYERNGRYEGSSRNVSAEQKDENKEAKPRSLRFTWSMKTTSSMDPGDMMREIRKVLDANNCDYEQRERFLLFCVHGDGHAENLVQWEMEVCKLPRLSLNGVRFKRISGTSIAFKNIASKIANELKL

[5] = biological target: Mitogen-activated protein kinase 10 (Homo sapiens) (UniProt P53779); experiment: Inhibition of JNK3a1 at 3 uM relative to control; values are per cent of control
[6] = biological target: Serine/threonine-protein kinase Chk1 (Homo sapiens) (UniProt O14757); experiment: Inhibition of CHK1 at 3 uM relative to control; values are per cent of control
Chain of Serine/threonine-protein kinase Chk1 (Homo sapiens) (O14757 whole entry): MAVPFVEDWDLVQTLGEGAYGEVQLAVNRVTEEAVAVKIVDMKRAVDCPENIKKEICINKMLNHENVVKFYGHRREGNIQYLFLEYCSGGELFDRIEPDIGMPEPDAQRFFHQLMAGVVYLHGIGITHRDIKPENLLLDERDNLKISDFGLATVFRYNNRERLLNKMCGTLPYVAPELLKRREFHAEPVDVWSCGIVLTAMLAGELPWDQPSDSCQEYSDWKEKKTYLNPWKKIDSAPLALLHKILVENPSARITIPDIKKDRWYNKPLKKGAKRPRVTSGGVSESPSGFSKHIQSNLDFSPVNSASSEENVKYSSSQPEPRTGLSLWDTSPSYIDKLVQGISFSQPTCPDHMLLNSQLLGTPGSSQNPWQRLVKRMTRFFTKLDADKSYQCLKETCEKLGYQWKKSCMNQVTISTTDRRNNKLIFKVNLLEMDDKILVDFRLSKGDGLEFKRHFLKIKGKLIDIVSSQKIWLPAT

[7] = biological target: RAC-beta serine/threonine-protein kinase (Homo sapiens) (UniProt P31751); experiment: Inhibition of PKBbeta at 3 uM relative to control; values are per cent of control
[8] = biological target: Cyclin-dependent kinase 2 (Homo sapiens) (UniProt P24941); experiment: Inhibition of CDK2 at 3 uM relative to control; values are per cent of control
[9] = biological target: Eukaryotic elongation factor 2 kinase (Homo sapiens) (UniProt O00418); experiment: Inhibition of EF2K at 3 uM relative to control; values are per cent of control
ROCK1 (Homo sapiens) = experiment: Inhibition of ROCK1
[10] = biological target: Tyrosine-protein kinase CSK (Homo sapiens) (UniProt P41240); experiment: Inhibition of CSK at 3 uM relative to control; values are per cent of control
Chain of Tyrosine-protein kinase CSK (Homo sapiens) (P41240 2-450 limits assumed): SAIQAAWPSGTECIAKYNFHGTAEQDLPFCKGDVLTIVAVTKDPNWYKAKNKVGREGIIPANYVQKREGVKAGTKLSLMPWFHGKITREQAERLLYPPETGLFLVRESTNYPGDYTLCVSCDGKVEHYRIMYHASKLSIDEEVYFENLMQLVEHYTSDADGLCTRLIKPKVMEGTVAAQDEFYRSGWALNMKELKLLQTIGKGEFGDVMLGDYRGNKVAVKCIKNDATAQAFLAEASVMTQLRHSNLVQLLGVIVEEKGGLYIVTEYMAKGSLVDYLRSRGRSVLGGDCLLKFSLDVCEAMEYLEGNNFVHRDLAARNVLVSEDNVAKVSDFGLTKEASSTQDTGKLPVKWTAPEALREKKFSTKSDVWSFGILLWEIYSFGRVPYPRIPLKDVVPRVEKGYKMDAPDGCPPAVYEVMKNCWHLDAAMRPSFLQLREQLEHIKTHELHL

[11] = biological target: Lymphokine-activated killer T-cell-originated protein kinase (Homo sapiens) (UniProt Q96KB5); conditions: 3 to 6 uM
Description: Inhibition of PBK at 3 to 6 uM relative to control

[12] = biological target: Mitogen-activated protein kinase 15 (Homo sapiens) (UniProt Q8TD08); conditions: 3 to 6 uM
Description: Inhibition of ERK8 at 3 to 6 uM relative to control

[13] = biological target: Receptor-interacting serine/threonine-protein kinase 4 (Homo sapiens) (UniProt P57078); conditions: 3 to 6 uM
Description: Inhibition of ANKRD3 at 3 to 6 uM relative to control

Focal adhesion kinase 1 = Focal adhesion kinase 1 (Homo sapiens, UniProt Q05397); experiment: Inhibition of PTK2
[14] = biological target: Serine/threonine-protein kinase Nek6 (Homo sapiens) (UniProt Q9HC98); conditions: 3 to 6 uM
Chain of Serine/threonine-protein kinase Nek6 (Homo sapiens) (Q9HC98 whole entry): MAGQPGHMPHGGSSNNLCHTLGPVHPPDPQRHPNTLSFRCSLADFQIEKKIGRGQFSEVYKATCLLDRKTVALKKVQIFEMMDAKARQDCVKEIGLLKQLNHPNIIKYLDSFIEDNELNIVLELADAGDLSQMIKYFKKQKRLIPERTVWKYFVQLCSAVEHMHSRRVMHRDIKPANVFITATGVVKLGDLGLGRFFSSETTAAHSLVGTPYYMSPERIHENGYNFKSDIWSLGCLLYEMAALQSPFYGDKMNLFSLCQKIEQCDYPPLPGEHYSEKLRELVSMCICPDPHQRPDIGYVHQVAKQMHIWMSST
Description: Inhibition of NEK6 at 3 to 6 uM relative to control

[15] = biological target: Ribosomal protein S6 kinase beta-1 (Homo sapiens) (UniProt P23443); conditions: 3 to 6 uM
Chain of Ribosomal protein S6 kinase beta-1 (Homo sapiens) (P23443 whole entry, looked up): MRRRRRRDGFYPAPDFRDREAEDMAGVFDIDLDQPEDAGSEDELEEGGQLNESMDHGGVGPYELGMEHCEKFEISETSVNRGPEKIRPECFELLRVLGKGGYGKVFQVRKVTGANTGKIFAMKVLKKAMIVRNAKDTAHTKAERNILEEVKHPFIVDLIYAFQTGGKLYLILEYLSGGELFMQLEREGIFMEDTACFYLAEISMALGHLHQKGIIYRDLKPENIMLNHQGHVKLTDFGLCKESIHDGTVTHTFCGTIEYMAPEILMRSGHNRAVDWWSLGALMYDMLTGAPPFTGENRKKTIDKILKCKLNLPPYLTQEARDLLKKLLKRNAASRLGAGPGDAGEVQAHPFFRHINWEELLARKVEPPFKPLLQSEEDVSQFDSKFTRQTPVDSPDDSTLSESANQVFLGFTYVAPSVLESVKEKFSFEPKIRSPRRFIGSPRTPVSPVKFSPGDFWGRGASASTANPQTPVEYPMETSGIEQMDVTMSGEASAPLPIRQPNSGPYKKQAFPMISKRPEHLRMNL
Description: Inhibition of S6K1 at 3 to 6 uM relative to control

[16] = biological target: Aurora kinase B (Homo sapiens) (UniProt Q96GD4); conditions: 3 to 6 uM
Chain of Aurora kinase B (Homo sapiens) (Q96GD4 whole entry): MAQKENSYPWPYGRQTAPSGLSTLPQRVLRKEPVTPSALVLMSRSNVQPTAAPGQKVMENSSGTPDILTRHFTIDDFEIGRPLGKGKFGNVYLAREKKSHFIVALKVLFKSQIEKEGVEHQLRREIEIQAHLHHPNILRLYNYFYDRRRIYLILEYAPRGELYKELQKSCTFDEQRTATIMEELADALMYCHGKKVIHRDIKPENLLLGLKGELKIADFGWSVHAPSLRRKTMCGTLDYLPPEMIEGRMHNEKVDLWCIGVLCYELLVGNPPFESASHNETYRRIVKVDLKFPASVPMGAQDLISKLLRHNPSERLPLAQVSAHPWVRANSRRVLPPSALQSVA
Description: Inhibition of Aurora B at 3 to 6 uM relative to control

[17] = biological target: Serine/threonine-protein kinase Chk1 (Homo sapiens) (UniProt O14757); conditions: 3 to 6 uM
Description: Inhibition of CHK1 at 3 to 6 uM relative to control

[18] = biological target: Inhibitor of nuclear factor kappa-B kinase subunit epsilon (Homo sapiens) (UniProt Q14164); conditions: 3 to 6 uM
Description: Inhibition of IKKE at 3 to 6 uM relative to control

[19] = biological target: Glycogen synthase kinase-3 beta (Homo sapiens) (UniProt P49841); conditions: 3 to 6 uM
Description: Inhibition of GSK3-beta at 3 to 6 uM relative to control

[20] = biological target: Serine/threonine-protein kinase Nek2 (Homo sapiens) (UniProt P51955); conditions: 3 to 6 uM
Chain of Serine/threonine-protein kinase Nek2 (Homo sapiens) (P51955 whole entry): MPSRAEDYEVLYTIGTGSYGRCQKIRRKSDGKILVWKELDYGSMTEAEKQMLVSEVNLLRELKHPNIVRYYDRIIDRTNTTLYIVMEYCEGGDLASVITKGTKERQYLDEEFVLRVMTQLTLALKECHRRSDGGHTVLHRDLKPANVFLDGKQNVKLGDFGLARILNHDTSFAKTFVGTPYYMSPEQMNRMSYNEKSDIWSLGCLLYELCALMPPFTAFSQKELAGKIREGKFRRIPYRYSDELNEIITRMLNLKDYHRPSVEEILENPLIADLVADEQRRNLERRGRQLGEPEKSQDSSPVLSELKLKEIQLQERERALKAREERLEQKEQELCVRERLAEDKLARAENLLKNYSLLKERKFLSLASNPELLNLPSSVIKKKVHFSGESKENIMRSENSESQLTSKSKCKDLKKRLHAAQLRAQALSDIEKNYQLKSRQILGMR
Description: Inhibition of NEK2a at 3 to 6 uM relative to control

[21] = biological target: Serine/threonine-protein kinase 3 (Homo sapiens) (UniProt Q13188); conditions: 3 to 6 uM
Description: Inhibition of MST2 at 3 to 6 uM relative to control

[22] = biological target: Serine/threonine-protein kinase Sgk1 (Homo sapiens) (UniProt O00141); conditions: 3 to 6 uM
Description: Inhibition of SGK at 3 to 6 uM relative to control

[23] = biological target: Dual specificity tyrosine-phosphorylation-regulated kinase 1A (Homo sapiens) (UniProt Q13627); conditions: 3 to 6 uM
Description: Inhibition of DYRK1A at 3 to 6 uM relative to control

[24] = biological target: Serine/threonine-protein kinase haspin (Homo sapiens) (UniProt Q8TF76); conditions: 3 to 6 uM
Chain of Serine/threonine-protein kinase haspin (Homo sapiens) (Q8TF76 whole entry): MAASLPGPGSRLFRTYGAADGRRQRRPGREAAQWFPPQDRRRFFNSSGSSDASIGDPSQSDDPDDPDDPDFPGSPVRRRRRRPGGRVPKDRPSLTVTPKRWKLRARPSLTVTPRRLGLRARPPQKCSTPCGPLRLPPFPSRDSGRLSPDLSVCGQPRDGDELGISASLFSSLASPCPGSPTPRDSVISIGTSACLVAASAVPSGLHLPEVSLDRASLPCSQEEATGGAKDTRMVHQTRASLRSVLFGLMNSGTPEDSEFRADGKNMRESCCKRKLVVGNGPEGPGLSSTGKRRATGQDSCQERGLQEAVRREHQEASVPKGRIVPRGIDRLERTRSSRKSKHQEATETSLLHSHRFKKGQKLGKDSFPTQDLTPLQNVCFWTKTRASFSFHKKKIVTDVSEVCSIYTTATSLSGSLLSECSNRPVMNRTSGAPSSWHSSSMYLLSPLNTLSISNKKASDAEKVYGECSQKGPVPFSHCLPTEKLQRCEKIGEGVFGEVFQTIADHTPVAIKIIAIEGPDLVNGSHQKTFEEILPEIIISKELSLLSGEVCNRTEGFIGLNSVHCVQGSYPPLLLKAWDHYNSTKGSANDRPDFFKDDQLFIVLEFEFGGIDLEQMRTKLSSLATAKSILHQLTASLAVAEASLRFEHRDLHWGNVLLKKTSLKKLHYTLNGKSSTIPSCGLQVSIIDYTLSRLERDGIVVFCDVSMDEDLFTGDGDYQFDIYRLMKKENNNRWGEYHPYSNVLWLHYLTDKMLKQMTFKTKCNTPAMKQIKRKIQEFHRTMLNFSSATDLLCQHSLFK
Description: Inhibition of GSG2 at 3 to 6 uM relative to control

[25] = biological target: Leucine-rich repeat serine/threonine-protein kinase 2 (Homo sapiens) (UniProt Q5S007); conditions: 3 to 6 uM
Description: Inhibition of LRRK2 at 3 to 6 uM relative to control

[26] = biological target: Insulin-like growth factor 1 receptor (Homo sapiens) (UniProt P08069); conditions: 3 to 6 uM
Description: Inhibition of IGF1R at 3 to 6 uM relative to control

Cytochrome P450 1A2 = biological target: T1, Cytochrome P450 1A2 (Homo sapiens, UniProt P05177); experiment: Inhibition of human CYP1A2 by fluorescence assay; format: ADME
T1 sequence (P05177 whole entry): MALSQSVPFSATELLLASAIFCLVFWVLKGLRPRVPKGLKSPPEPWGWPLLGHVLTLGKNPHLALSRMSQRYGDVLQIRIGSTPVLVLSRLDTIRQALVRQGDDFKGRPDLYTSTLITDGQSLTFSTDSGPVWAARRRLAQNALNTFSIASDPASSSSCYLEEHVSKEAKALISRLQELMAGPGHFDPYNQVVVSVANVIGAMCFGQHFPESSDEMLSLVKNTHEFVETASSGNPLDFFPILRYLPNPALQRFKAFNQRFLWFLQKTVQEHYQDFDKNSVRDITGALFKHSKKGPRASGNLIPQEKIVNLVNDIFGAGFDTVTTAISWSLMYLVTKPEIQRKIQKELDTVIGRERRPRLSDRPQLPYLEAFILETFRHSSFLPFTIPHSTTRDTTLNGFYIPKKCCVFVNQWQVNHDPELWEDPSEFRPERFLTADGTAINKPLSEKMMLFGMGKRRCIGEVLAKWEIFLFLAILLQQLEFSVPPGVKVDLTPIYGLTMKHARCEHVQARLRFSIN

Chain of Lymphokine-activated killer T-cell-originated protein kinase (Homo sapiens) (Q96KB5 whole entry): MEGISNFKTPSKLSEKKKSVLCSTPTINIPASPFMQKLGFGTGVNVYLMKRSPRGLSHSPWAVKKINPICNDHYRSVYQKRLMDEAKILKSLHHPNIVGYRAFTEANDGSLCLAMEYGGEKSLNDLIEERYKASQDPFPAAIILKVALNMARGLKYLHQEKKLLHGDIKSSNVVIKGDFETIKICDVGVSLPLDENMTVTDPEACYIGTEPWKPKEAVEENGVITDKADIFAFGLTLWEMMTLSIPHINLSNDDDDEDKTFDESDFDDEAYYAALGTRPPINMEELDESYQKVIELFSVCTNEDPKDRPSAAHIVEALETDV

residual activity [2]: > 50%
residual activity [3]: > 50%
residual activity [4]: > 50%
residual activity [5]: > 50%
residual activity [6]: > 50%
residual activity [7]: > 50%
residual activity [8]: > 50%
residual activity [9]: > 50%
IC50 (ROCK1 (Homo sapiens)): 0.006 µM
residual activity [10]: > 50%
SMILES: NC(=O)c1ccc(NC(=O)NCc2cccc(C(=O)Nc3ccc4c(c3)CNCC4)c2)cc1
residual activity [1]: > 50%

residual activity [13]: > 50%
IC50 (Focal adhesion kinase 1): > 10 µM
residual activity [14]: > 50%
residual activity [15]: > 50%
residual activity [16]: > 50%
residual activity [17]: > 50%
residual activity [18]: > 50%
residual activity [19]: > 50%
residual activity [20]: > 50%
residual activity [21]: > 50%
residual activity [22]: > 50%
residual activity [23]: > 50%
residual activity [24]: > 50%
residual activity [25]: > 50%
residual activity [26]: > 50%
IC50 (Cytochrome P450 1A2): > 30 µM
SMILES: COc1ccc(C(=O)NCc2cccc(C(=O)Nc3ccc4c(c3)CNCC4)c2)cc1OC
residual activity [11]: > 50%
residual activity [12]: > 50%
